The values that follow come from article PMC7719179, “Small molecule inhibition of Dynamin-dependent endocytosis targets multiple niche signals and impairs leukemia stem cells” (Nature Communications, 2020).

In one series the test system is pre-LSC self-renewal. In words: Serial transplantation assay of thymocytes from treated Lmo2^Tg mice. The format is in vivo, mouse. On the procedure: For primary transplantation, single-cell suspension of 2 × 10^6 thymocytes were intravenously injected into sublethally irradiated (650 Rads) isogenic Ly5.1 (Cd45.1) mice. Analysis was performed 4 weeks after transplantation and 5 × 10^6 thymocytes harvested from recipients were subsequently injected into sublethally irradiated (650 Rads) Ly5.1 (Cd45.1) recipients for the secondary and tertiary transplantations, as previously described.
Supplementary Figure 3. In vivo effect of Dynole 34-2. a, Treatment schematic and pharmacokinetic analysis of serum levels (µ M) of Dynole 34-2 at different time points (15, 30, 60, 120 and 240 minutes) following a single intraperitoneal injection (grey arrow) in 5 recipients (A, B, C, D, E). Average maximum concentration (Cmax), the time taken to reach this maximum concentration (Tmax), and the half-life (T 1/2) of Dynole 34-2 in the serum of treated mice are indicated.
Average concentration for each time point is indicated (bar). b , Treatment schematic and fold expansion of donor-derived L mo2-transgenic DN3a thymocytes enumerated in the thymus of primary (I), secondary (II) and tertiary (III) recipients, assessed four weeks after transplantation of cells harvested from 5 independent mice per cohort of donors. Number of recipients engrafted for each condition is indicated. Mean ± SD (N = number of independent mice analysed), Student’s t-test;

The subject of series [1] is pre-leukemic clones in DN3a cells. Kind of series: Tcrβ gene rearrangement (clonality) in DN3a thymocytes of treated Lmo2^Tg mice. The format is in vivo, mouse. On the procedure: page 8: Supplementary Figure 4. […] therapy (VXL) or combination therapy was administered. Mean ± SEM, 2 -way ANOVA with Tukey’s […] poly-clonal Tcrβ gene rearrangements (pie charts) in these purified thymocytes (n = 5).

Series [2] has as its system AML01-307 and AML18 patient-derived xenografts. In words: Survival (Kaplan-Meier) and leukemia growth delay in AML01-307 and AML18 xenograft recipients. The conditions noted are these: PDX AML01-307. Format: in vivo, human. On the procedure:
Patient-derived xenograft models were established as previously described[97],[98]. All experiments were pre-approved by the Human Research Ethics Committee of the University of New South Wales (UNSW), the UNSW Animal Care and Ethics Committee, the Alfred Health Human Ethics Committee and the AMREP Animal Ethics Committee. For transplantation assays, 10^6 splenocytes harvested from successfully engrafted primary human ETP-ALL or T-ALL xenografts were injected into nonobese diabetic/severe combined immunodeficient (NOD.Cg-Prkdc^scid, also termed NOD/SCID) or NOD/SCID/Il2rg^tm1wjl/SzJ (NSG) mice[99]. Moreover, 1.5 × 10^6 cells splenocytes harvested from successfully engrafted patient-derived AML xenografts were injected into nonobese diabetic/severe immunodeficient (NOD.Cg-Rag1^tm1MomIl2rg^tm1wjl/SzJ, also termed NRG) mice expressing human IL-3, human GM-CSF and human SCF from the SGM3 triple transgene (NRGS)[100]. Engraftment into recipients was monitored by FACS analysis of peripheral blood as previously described. […] Both males and females were used. […] Kaplan–Meier survival and statistical analyses were performed using GraphPad Prism. 6.0 software (GraphPad Software, Inc.). […]
In general terms: A xenograft is tissue or cells of one species grown in another, often human tumour cells in immunodeficient mice.

The next series in a line: in vitro. The conditions noted are these: mouse, Relative % viable cells. On the procedure:
Pre-leukemic and leukemic thymocytes were purified by flow cytometry and co-cultured on GFP-positive OP9 and OP9-DL1 stromal cell lines, as described previously. Thymocytes were co-cultured in reconstituted alpha-MEM medium (#12318, Gibco, Grand Island NY, USA) supplemented with 20% FCS (#12318), HEPES 10 mM (#15630-080), sodium pyruvate 1 mM (#11360-070), β-mercaptoethanol 55 μM (#21985-023), Glutamax 2 mM (#15750-060), 1% Penicillin/Streptomycin (#15140-122), 5 ng/mL rmFLT-3 ligand (#250-31 L, Pepro Tech), 5 ng/mL rmIL-7 (#217-17, Pepro Tech) and 25 ng/mL rmSCF (#250-03, Pepro Tech). After 48 h of co-culture, thymocytes were counted and analysed by FACS. […]
viability of wild-type (WT), Lmo2 Tg, Lmo2Tg;STAT5-CA Tg and Lmo2Tg;N1-ICD Tg DN3a thymocytes […]
normalized to cells treated with vehicle (%DMSO). Mean ± SEM of n=4 biological replicates. b, […]
thymocytes from 6-week old wild-type (WT), Lmo2 Tg, Lmo2Tg;STAT5-CATg and Lmo2Tg ;N1-ICD Tg mice. Mean ± SD of n=4 biological replicates are shown. 2-way ANOVA with Tukey’s correction test; […]
(1 picture or pasted object on this page, not shown here)
*P<0.05, *** P<0.001 compared to WT; #P<0.05, ##P<0.01, ###P<0.001 compared to L mo2Tg. c, Levels of pStat5 (left) after stimulation with IL-7 , as well as Hes1 expression (right) after co-culture on OP9- […]
(0.2 µM), Ruxolitinib (0.2 µM) and DAPT (0.1 µM). Unstimulated cells were used as negative controls (dashed line). Student’s t -test, ** P<0.01, *** P<0.001 compared to unstimulated cells. MFI ± SEM, 1-way ANOVA with Tukey’s correction test; **P<0.01, *** P<0.001 compared to vehicle. d, Clonogenic assay of normal murine hematopoietic stem and progenitor cells (HSPCs) cultured in the presence […]
± SD, Student’s t -test ( n=4) **P<0.01 compared to vehicle. e, Relative viability of wild-type (WT), […]
2 (0.2 µM), Ruxolitinib (0.2 µM) and DAPT (0.1 µM) for 48 hours. Viability was normalized to cells treated with vehicle (%DMSO, which was reported as 100). Mean ± SEM, 2-way ANOVA with Tukey’s correction test, **P<0.01, *** P<0.001 compared to vehicle.

What is called viability is a per cent measure of how many cells are alive, often set against a control. Lower therefore signals more harm to the cells.

Several values for one entry are separate records, joined by “and”; a condition that tells them apart may be missing. Identical values can stand only once.

Turning to `CCCCCCCCNC(=O)C(C#N)=Cc1cn(CCCN(C)C)c2ccccc12` [Dynole 34-2, 2-Cyano-N-octyl-3-(1-(3-dimethylaminopropyl)-1H-indol-3-yl)-acrylamide], the “repopulating activity in serial transplantation” value with pre-LSC self-renewal (tertiary recipients, result in words) was “complete loss of repopulating activity”. Also, the “Fold expansion DN3a cells” value in the series on pre-LSC self-renewal (transplant III) is 0.1 fold and 0.11 fold. Also, the “Clonality (%) for each sample: Oligoclonal” value in series [1] (mouse, in vivo) was 100% and 50%. The “clonality of DN3a cells by Tcrβ rearrangement” value in series [1] (treated Lmo2^Tg mice, result in words) is on record as “reduced monoclonality”. For the same compound, the Time to leukemia in series [2] was 7 weeks and 8.71 weeks and 8.57 weeks and 7.57 weeks and 8.43 weeks.

In the series “in vitro”, `N#CC[C@H](C1CCCC1)n1cc(-c2ncnc3[nH]ccc23)cn1` [Ruxolitinib] gave a viability at 48 h, 0.04 mM of 83.2% and a viability at 48 h, 0.2 mM of 39.6%.
